Results as given in US11071726B2, “Treating gastric cancer using combination therapies comprising liposomal irinotecan, oxaliplatin, 5-fluorouracil (and leucovorin)” (Ipsen Biopharm Ltd., priority 2016, dated 2021).
Read-outs that look alike come from different tables or passages of the source.

Tests used:
Topoisomerase I = target: T1, Topoisomerase I (Homo sapiens, UniProt P11387); settings: metabolite formed by nonspecific carboxylesterases; cited from earlier work
T1 sequence (P11387 1-765): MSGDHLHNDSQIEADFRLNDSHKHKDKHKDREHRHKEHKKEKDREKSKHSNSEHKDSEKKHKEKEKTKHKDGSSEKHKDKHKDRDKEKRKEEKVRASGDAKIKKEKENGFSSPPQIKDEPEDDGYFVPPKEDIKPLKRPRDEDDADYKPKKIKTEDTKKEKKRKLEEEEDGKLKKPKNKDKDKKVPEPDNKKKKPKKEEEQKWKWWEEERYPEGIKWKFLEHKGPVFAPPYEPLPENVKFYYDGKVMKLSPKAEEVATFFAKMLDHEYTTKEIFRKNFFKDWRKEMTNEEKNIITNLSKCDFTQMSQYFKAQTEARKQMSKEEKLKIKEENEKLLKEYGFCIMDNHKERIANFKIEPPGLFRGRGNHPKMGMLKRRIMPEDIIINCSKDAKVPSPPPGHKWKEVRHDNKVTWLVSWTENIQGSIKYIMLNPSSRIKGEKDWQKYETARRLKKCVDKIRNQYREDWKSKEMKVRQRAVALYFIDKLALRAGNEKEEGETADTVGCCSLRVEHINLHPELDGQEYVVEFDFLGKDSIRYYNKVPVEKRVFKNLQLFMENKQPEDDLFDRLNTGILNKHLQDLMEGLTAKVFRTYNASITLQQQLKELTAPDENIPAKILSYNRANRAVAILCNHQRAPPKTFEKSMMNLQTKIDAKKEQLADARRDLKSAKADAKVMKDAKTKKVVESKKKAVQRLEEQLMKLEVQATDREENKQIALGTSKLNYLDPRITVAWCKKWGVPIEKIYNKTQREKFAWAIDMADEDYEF

[1] = human, in vivo
[2] = single-agent irinotecan 350 mg/m^2 once every-3-weeks, cited from earlier work
[3] = cited from earlier work

CCc1c2c(nc3ccc(O)cc13)-c1cc3c(c(=O)n1C2)COC(=O)[C@]3(O)CC [SN-38]
activity relative to irinotecan (Topoisomerase I): 100-1000 fold

irinotecan sucrose octasulfate salt liposome injection [MM-398]
consecutive doses of dose level 1 received by any patient [1]: ≤ 2 | patients administered dose level 1 on day 15 of cycle 1 [1]: 3 | patients administered dose level −1 on days 1 and 15 of cycle 1 [1]: 6

CCc1c2c(nc3ccc(OC(=O)N4CCC(N5CCCCC5)CC4)cc13)-c1cc3c(c(=O)n1C2)COC(=O)[C@]3(O)CC [irinotecan, (S)-4,11-diethyl-3,4,12,14-tetrahydro-4-hydroxy-3,14-dioxo1H-pyrano[3′,4′:6,7]-indolizino[1,2-b]quinolin-9-yl-[1,4′bipiperidine]-1′-carboxylate]
incidence of grade 4 neutropenia ([2]; patients heterozygous (UGT1A1 6/7 genotype)): 12.5% | incidence of grade 4 neutropenia ([2]; patients homozygous for the UGT1A1*28 allele): ≤ 50% | grade 4 neutropenia ([2]; patients homozygous for the wild-type allele (UGT1A1 6/6 genotype)): no grade 4 neutropenia was observed

FOLFIRINOX
incidence of most common Grade 3-4 adverse events (neutropenia, fatigue, vomiting, diarrhea, thrombocytopenia, sensory neuropathy, anemia, elevated ALT, thromboembolism, febrile neutropenia) ([3]; Phase 3 study of the FOLFIRINOX combination): ≥ 5% | toxicity ([3]; first-line treatment): significant toxicity
